Measured values taken from patent publication US12661410B2, “Compounds for targeted degradation of RET” (C4 Therapeutics, Inc., priority 2020, dated 2026).
Residue numbers refer to the chain shown, from its start. Read-outs that look alike come from different tables or passages of the source.

Legend:
[1] = biological target: T1, RET(KD: 658-1114 G810R) (Homo sapiens, UniProt P07949, G810R); experiment: HiBiT-Degradation, RET G810R degradation assay (Nano-Glo HiBiT Lytic), 293T.165 cells; type: cell-based; settings: for Emax / DC50: 6.0 hours
T1 construct: 658-1114; expressed in transfected cells; host or cells: 293T.165 (293T cells, generated in-house)
T1 sequence (P07949 658-1114 G810R): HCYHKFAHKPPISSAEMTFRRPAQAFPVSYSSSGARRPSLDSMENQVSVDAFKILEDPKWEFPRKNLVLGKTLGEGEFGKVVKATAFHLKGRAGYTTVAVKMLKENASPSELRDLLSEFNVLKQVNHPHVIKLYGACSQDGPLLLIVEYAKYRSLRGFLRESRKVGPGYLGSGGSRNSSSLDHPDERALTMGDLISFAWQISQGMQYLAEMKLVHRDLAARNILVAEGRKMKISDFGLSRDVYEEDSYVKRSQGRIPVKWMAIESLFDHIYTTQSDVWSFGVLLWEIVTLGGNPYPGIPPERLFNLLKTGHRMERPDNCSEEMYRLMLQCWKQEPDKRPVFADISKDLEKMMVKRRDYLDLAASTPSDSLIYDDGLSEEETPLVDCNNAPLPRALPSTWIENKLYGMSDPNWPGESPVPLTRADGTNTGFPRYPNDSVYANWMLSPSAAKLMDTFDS
How it was run: (§1)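 Cells were plated and dosed with an 11-point half-log series (highest 10 μM) in duplicate. After 6 hours they were lysed with HiBiT lytic detection reagent and luminescence measured. DC50 and percent remaining protein (Emax) came from the dose-response curves.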

[2] = biological target: T2, RET (658-1114) (Homo sapiens, UniProt P07949); experiment: HiBiT-Degradation, RET wild-type degradation assay (Nano-Glo HiBiT Lytic), 293T.144 cells; type: cell-based; settings: for DC50 / Emax: 6.0 hours
T2 construct: 658-1114; expressed in transfected cells; host or cells: 293T.144 (293T cells, generated in-house)
T2 sequence (P07949 658-1114): T1 sequence (P07949 658-1114 G810R) with R153G
How it was run: as §1

[3] = % remaining protein, read-out: 293T.165 RET(KD: 658-1114 G810R) 6.0 hours (Emax)
[4] = half-maximal degradation concentration, read-out: 293T.165 RET(KD: 658-1114 G810R) 6.0 hours (DC50)
[5] = % remaining protein, read-out: 293T.144 RET (658-1114) 6.0 hours (Emax)
[6] = half-maximal degradation concentration, read-out: 293T.144 RET (658-1114) 6.0 hours (DC50)
[7] = HiBiT-Degradation, read-out: 293T.165 RET(KD: 658-1114 G810R) 6.0 hours (DC50)
[8] = HiBiT-Degradation, read-out: 293T.144 RET (658-1114) 6.0 hours (DC50)
[9] = HiBiT-Degradation, read-out: 293T.144 RET (658-1114) 6.0 hours (Emax)

Compound	Emax [1, 3] [%]	DC50 [1, 4] [nM]	HiBiT-Degradation 293T.165 RET(KD: 658-1114 G810R) 6.0 hours (IP) [nM] ([1]; RET G810R)	DC50 ([1]; RET G810R, read-out: HiBiT-Degradation 293T.165 RET(KD: 658-1114 G810R) 6.0 hours (DC50)) [nM]	Emax ([1]; RET G810R, read-out: HiBiT-Degradation 293T.165 RET(KD: 658-1114 G810R) 6.0 hours (Emax)) [%]	HiBiT-Degradation 293T.144 RET (658-1114) 6.0 hours (IP) [nM] ([2]; RET wild-type)	DC50 ([2]; RET wild-type, read-out: HiBiT-Degradation 293T.144 RET (658-1114) 6.0 hours (DC50)) [nM]	Emax ([2]; RET wild-type, read-out: HiBiT-Degradation 293T.144 RET (658-1114) 6.0 hours (Emax)) [%]	293T.165 RET(KD: 658-1114 G810R) 6.0 hours (IP) [nM] [1]	293T.144 RET (658-1114) 6.0 hours (IP) [nM] [2]	Emax [2, 5] [%]	DC50 [2, 6] [nM]	293T.165 RET(KD: 658-1114 G810R) 6.0 hours (Emax) ([1]; HiBiT-Degradation)	293T.165 RET(KD: 658-1114 G810R) 6.0 hours (IP) [nM] ([1]; HiBiT-Degradation)	DC50 [1, 7] [nM]	293T.144 RET (658-1114) 6.0 hours (IP) [nM] ([2]; HiBiT-Degradation)	DC50 [2, 8] [nM]	Emax [2, 9] [%]
COCC1(Cc2ccccn2)CCN(c2ccc(-c3nc(-c4cnn(C5CCN(C(=O)CN6CCC(c7ccc(NC8CCC(=O)NC8=O)cc7F)CC6)CC5)c4)cn4ncc(C#N)c34)cn2)CC1 (stereo not drawn) [Compound 78, 6-[1-[1-[2-[4-[4-[(2,6-dioxo-3-piperidyl)amino]-2-fluoro-phenyl]-1-piperidyl]acetyl]-4-piperidyl]pyrazol-4-yl]-4-[6-[4-(methoxymethyl)-4-(2-pyridylmethyl)-1-piperidyl]-3-pyridyl]pyrazolo[1,5-a]pyrazine-3-carbonitrile]	< 30	< 100	++++ (< 50 nM = ++++)	< 100	< 30	++++ (< 50 nM = ++++)	< 50	< 30	–	–	–	–	–	–	–	–	–	–
CCC1(C(=O)NC(C)C)CCN(c2ccc(-c3nc(-c4cnn(C5CCN(C(=O)CC6(O)CCN(c7ccc(NC8CCC(=O)NC8=O)cc7Br)CC6)CC5)c4)cn4ncc(C#N)c34)cn2)CC1 (stereo not drawn) [Compound 95, 1-[5-[6-[1-[1-[2-[1-[2-bromo-4-[(2,6-dioxo-3-piperidyl)amino]phenyl]-4-hydroxy-4-piperidyl]acetyl]-4-piperidyl]pyrazol-4-yl]-3-cyano-pyrazolo[1,5-a]pyrazin-4-yl]-2-pyridyl]-4-ethyl-N-isopropyl-piperidine-4-carboxamide]	< 30	< 50	–	–	–	–	–	–	++++ (<50 nM = ++++)	++++ (<50 nM = ++++)	< 30	< 50	–	–	–	–	–	–
COc1cc(N2CCN([C@H]3CC[C@H](n4cc(-c5cn6ncc(C#N)c6c(-c6ccc(N7C[C@@H]8C[C@@](C)(NC(=O)c9ncccc9Cl)C[C@@H]8C7)nc6)n5)cn4)CC3)CC2)c(F)cc1NC1CCC(=O)NC1=O (stereo partly drawn) [Compound 209, N-[(3aR,6aS)-2-[5-[3-cyano-6-[1-[4-[4-[4-[(2,6-dioxo-3-piperidyl)amino]-2-fluoro-5-methoxy-phenyl]piperazin-1-yl]cyclohexyl]pyrazol-4-yl]pyrazolo[1,5-a]pyrazin-4-yl]-2-pyridyl]-5-methyl-1,3,3a, 4,6,6a-hexahydrocyclopenta[c]pyrrol-5-yl]-3-chloro-pyridine-2-carboxamide]	< 30	< 100	–	–	–	–	–	–	++++ (<50 nM = ++++)	++++ (<50 nM = ++++)	< 30	< 50	–	–	–	–	–	–
CCC1(C(=O)NC2CCOCC2)CCN(c2ccc(-c3nc(-c4cnn([C@H]5CC[C@H](N6CCC(c7ccc(N[C@H]8CCC(=O)NC8=O)cc7F)CC6)CC5)c4)cn4ncc(C#N)c34)cn2)CC1 (stereo in doubt) [Compound 144, 1-(5-(3-cyano-6-(1-((1S,4r)-4-(4-(4-(((S)-2,6-dioxopiperidin-3-yl)amino)-2-fluorophenyl)piperidin-1-yl)cyclohexyl)-1H-pyrazol-4-yl)pyrazolo[1,5-a]pyrazin-4-yl)pyridin-2-yl)-4-ethyl-N-(tetrahydro-2H-pyran-4-yl)piperidine-4-carboxamide]	< 30	< 50	–	–	–	–	–	–	++++ (<50 nM = ++++)	++++ (<50 nM = ++++)	< 30	< 50	–	–	–	–	–	–
CCC1(C(=O)NC2CCC2)CCN(c2ccc(-c3nc(-c4cnn(C5CCN([C@@H]6CCN(c7ccc(N[C@@H]8CCC(=O)NC8=O)cc7F)CC6(F)F)CC5)c4)cn4ncc(C#N)c34)cn2)CC1 (single isomer, unassigned) [Compound 192]	< 30	< 100	–	–	–	–	–	–	+++ (<100 nM = +++)	++++ (<50 nM = ++++)	< 30	< 50	–	–	–	–	–	–
CCC1(C(=O)NC(C)C)CCN(c2ccc(-c3nc(-c4cnn(C5CCN(C(=O)CC6(O)CCN(c7ccc(N[C@@H]8CCC(=O)NC8=O)cc7Cl)CC6)CC5)c4)cn4ncc(C#N)c34)cn2)CC1 (single isomer, unassigned) [Compound 11]	< 30	< 50	–	–	–	–	–	–	–	–	–	–	++++ (< 30% = ++++)	++++ (< 50 nM = ++++)	< 50	++++ (< 50 nM = ++++)	< 50	< 30
COc1ccc(CC2(C(=O)NC(C)C)CCN(c3ccc(-c4nc(-c5cnn([C@H]6CC[C@H](N7CCN(c8cc(OC)c(NC9CCC(=O)NC9=O)cc8F)CC7)CC6)c5)cn5ncc(C#N)c45)cn3)CC2)nc1 (stereo partly drawn) [Compound 216, 1-[5-[3-cyano-6-[1-[4-[4-[4-[(2,6-dioxo-3-piperidyl)amino]-2-fluoro-5-methoxy-phenyl]piperazin-1-yl]cyclohexyl]pyrazol-4-yl]pyrazolo[1,5-a]pyrazin-4-yl]-2-pyridyl]-N-isopropyl-4-[(5-methoxy-2-pyridyl)methyl]piperidine-4-carboxamide]	< 30	< 100	–	–	–	–	–	–	+++ (<100 nM = +++)	++++ (<50 nM = ++++)	< 30	< 50	–	–	–	–	–	–
CC(C)NC(=O)C1(C(C)C)CCN(c2ccc(-c3cc(-c4cnn(C5CCN(C(=O)CN6CCC(c7ccc(NC8CCC(=O)NC8=O)cc7F)CC6)CC5)c4)cn4ncc(C#N)c34)cn2)CC1 (stereo not drawn) [Compound 56, 1-[5-[3-cyano-6-[1-[1-[2-[4-[4-[(2,6-dioxo-3-piperidyl)amino]-2-fluoro-phenyl]-1-piperidyl]acetyl]-4-piperidyl]pyrazol-4-yl]pyrazolo[1,5-a]pyridin-4-yl]-2-pyridyl]-N,4-diisopropyl-piperidine-4-carboxamide]	< 50	< 100	–	–	–	–	–	–	–	–	–	–	+++ (<50% = +++)	++++ (< 50 nM = ++++)	< 100	++++ (< 50 nM = ++++)	< 50	< 30
CC(C)(C)CC(=O)N1[C@@H]2COC[C@H]1CN(c1ccc(-c3nc(-c4cnn([C@H]5CC[C@@H](N6CCN(c7ccc(NC8CCC(=O)NC8=O)cc7F)CC6)CC5)c4)cn4ncc(C#N)c34)cn1)C2 (single isomer, unassigned) [Compound 158]	< 30	< 50	–	–	–	–	–	–	++++ (<50 nM = ++++)	++++ (<50 nM = ++++)	< 30	< 50	–	–	–	–	–	–
CCC1(C(=O)Nc2ccc(F)cc2)CCN(c2ccc(-c3nc(-c4cnn(C5CCN(C(=O)CC6(O)CCN(c7ccc(NC8CCC(=O)NC8=O)cc7Cl)CC6)CC5)c4)cn4ncc(C#N)c34)cn2)CC1 (stereo not drawn) [Compound 100, 1-[5-[6-[1-[1-[2-[1-[2-chloro-4-[(2,6-dioxo-3-piperidyl)amino]phenyl]-4-hydroxy-4-piperidyl]acetyl]-4-piperidyl]pyrazol-4-yl]-3-cyano-pyrazolo[1,5-a]pyrazin-4-yl]-2-pyridyl]-4-ethyl-N-(4-fluorophenyl)piperidine-4-carboxamide]	< 30	< 100	–	–	–	–	–	–	++++ (<50 nM = ++++)	++++ (<50 nM = ++++)	< 30	< 50	–	–	–	–	–	–
